Reference: patent US20160151406A1, “COMBINATION CANCER THERAPY WITH C-MET INHIBITORS AND SYNTHETIC OLIGONUCLEOTIDES” (Mirna Therapeutics, Inc., priority 2014, published 2016)
Where two headings read alike, the source gives them in different places.

Tests used:
Type in all cases: cell-based
[1] = test system: C3A HCC cells; experiment: Single-agent cell proliferation (AlamarBlue), C3A; details: Homo sapiens, 72 h, drug alone, proliferation 3 days post drug treatment
Description: (§1) Cell culture: HCC cells were maintained in EMEM medium with 10% fetal bovine serum, except Huh7 were maintained in DMEM. All cells were maintained at 37° C. in a humidified of 95% air and 5% CO2.
(§2) miR-Rx34 and tivantinib and EMD1214063 treatment: To determine the IC50 value of each drug alone, 2,000 cells per well were seeded in a 96-well plate format and treated with either tivantinib or miR-Rx34 as follows. (i) miR-Rx34 was reverse-transfected in triplicates in a serial dilution (0.03-30 nM) using RNAiMax lipofectamine. As controls, cells were also transfected with RNAiMax alone (mock). Cells were incubated with AlamarBlue (Invitrogen) 6 days post transfection to determine cellular proliferation. Proliferation data were normalized to mock-transfected cells. (ii) Tivantinib or EMD1214063, prepared as a 10 mM stock solution in dimethyl sulfoxide (DMSO), was added to cells 3 days after seeding at a final concentration ranging from 0.1 to 100 μM for tivantinib and 0.01 and 10 μM for EMD1214063. Solvent alone (1% final DMSO) was added to cells in separate wells as a control. Three days thereafter, cellular proliferation was measured by AlamarBlue and normalized to the solvent control.
(§3) Statistical analysis: Statistical analysis was done using the Excel (Microsoft) and Graphpad software. Averages and standard deviations were calculated from triplicate experiments. […]

[2] = test system: SK-Hep1 HCC cells; experiment: Single-agent cell proliferation (AlamarBlue), SK-Hep1; details: Homo sapiens, 72 h, drug alone, proliferation 3 days post drug treatment, read-out: EMD1214063 IC50
Description: as §1, §2, §3

[3] = test system: HepG2 HCC cells; experiment: Single-agent cell proliferation (AlamarBlue), HepG2; details: Homo sapiens, 72 h, drug alone, proliferation 3 days post drug treatment, read-out: Tivantinib IC50
Description: as §1, §2, §3

[4] = test system: Hep3b HCC cells; experiment: Single-agent cell proliferation (AlamarBlue), Hep3b; details: Homo sapiens, 72 h, drug alone, proliferation 3 days post drug treatment, read-out: Tivantinib IC50
Description: as §1, §2, §3

[5] = test system: Huh7 HCC cells; experiment: Single-agent cell proliferation (AlamarBlue), Huh7; details: Homo sapiens, Huh-7, 72 h, drug alone, proliferation 3 days post drug treatment, read-out: Tivantinib IC50
Description: as §1, §2, §3

| SMILES | IC50 ([1]; read-out: EMD1214063 IC50) | IC50 [2] | IC50 [3] | IC50 ([1]; read-out: Tivantinib IC50) | IC50 [4] | IC50 [5] |
| --- | --- | --- | --- | --- | --- | --- |
| CN1CCC(COc2cnc(-c3cccc(Cn4nc(-c5cccc(C#N)c5)ccc4=O)c3)nc2)CC1 [EMD1214063, 3-(1-(3-(5-((1-methylpiperidin-4-yl)methoxy)pyrimidin-2-yl)benzyl)-1,6-dihydro-6-oxopyridazin-3-yl)benzonitrile] | 7 µM | 6.7 µM | – | – | – | – |
| O=C1NC(=O)[C@@H](c2cn3c4c(cccc24)CCC3)[C@@H]1c1c[nH]c2ccccc12 [Tivantinib, (3R,4R)-3-(5,6-Dihydro-4H-pyrrolo[3,2,1-ij]quinolin-1-yl)-4-(1H-indol-3-yl)-2,5-pyrrolidinedione] | – | – | 8.99 to 25 µM | 2.3 to 7.42 µM | 4.63 to 18.6 µM | 1.5 to 3.32 µM |
